Measured values reported in patent publication US11759462B2, “Spirocyclic compounds as tryptophan hydroxylase inhibitors” (priority 2013, dated 2023).

molecular target: T1, Recombinant human TPH1 (MBP tagged) (Homo sapiens, UniProt P17752); assay: TPH1 in vitro inhibition assay (kinetic fluorescence); type: biochemical; details: TPH1 Range (TPH1 inhibition IC50)
T1 construct: cloning full length human TPH1 cDNA in to a bacterial pMAL-c5E expression vector; made in house; host or cells: E. coli BL21 (DE3)
T1 sequence (P17752 1-444): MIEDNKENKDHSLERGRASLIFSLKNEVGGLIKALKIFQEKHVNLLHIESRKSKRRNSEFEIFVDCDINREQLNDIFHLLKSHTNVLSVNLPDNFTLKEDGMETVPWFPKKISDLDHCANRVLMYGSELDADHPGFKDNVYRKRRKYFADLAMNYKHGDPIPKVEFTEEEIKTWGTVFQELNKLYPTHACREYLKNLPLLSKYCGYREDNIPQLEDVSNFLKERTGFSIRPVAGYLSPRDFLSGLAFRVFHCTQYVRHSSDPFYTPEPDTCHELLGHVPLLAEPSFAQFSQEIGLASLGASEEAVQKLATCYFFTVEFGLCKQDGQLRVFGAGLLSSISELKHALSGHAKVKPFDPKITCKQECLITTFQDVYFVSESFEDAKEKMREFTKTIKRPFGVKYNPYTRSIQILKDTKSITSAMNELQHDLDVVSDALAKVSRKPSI
Outline: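 Final mix: 15 nM MBP-TPH1, 30 μM Trp, 36 μM 6-methyltetrahydropterin, 25 μM ferrous ammonium sulfate, 50 mM MES pH 7.1, 1% DMSO, room temperature.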

SMILES | IC50 [nM]
Nc1nc(O[C@@H](c2ccc(Cl)cc2-c2ccccc2)C(F)(F)F)cc(N2CCC3(CC2)CN[C@H](C(=O)O)C3)n1 [Example 54j, (S)-8-(2-amino-6-((S)-1-(5-chloro-[1,1′-biphenyl]-2-yl)-2,2,2-trifluoroethoxy)pyrimidin-4-yl)-2,8-diazaspiro[4.5]decane-3-carboxylic acid] | 50 to 300

same assay, conditions: read-out: TPH1 Range (TPH1 inhibition IC50)

SMILES | IC50 [nM]
COC(=O)c1ccc(-c2ccc([C@@H](Oc3cc(N4CCC5(CC4)CN[C@H](C(=O)O)C5)nc(C)n3)C(F)(F)F)c(-n3ccc(C)n3)c2)cc1OC [Example 29q, (S)-8-(2-methyl-6-((R)-2,2,2-trifluoro-1-(3′-methoxy-4′-(methoxycarbonyl)-3-(3-methyl-1H-pyrazol-1-yl)-[1,1′-biphenyl]-4-yl)ethoxy)pyrimidin-4-yl)-2,8-diazaspiro[4.5]decane-3-carboxylic acid] | < 50
Cc1ccn(-c2cc(-c3ccc(C(=O)N(C)C)cc3)ccc2[C@@H](Oc2cc(N3CCC4(CC3)CN[C@H](C(=O)O)C4)nc(N)n2)C(F)(F)F)n1 [Example 1ck, (S)-8-(2-amino-6-((R)-1-(4′-(dimethylcarbamoyl)-3-(3-methyl-1H-pyrazol-l-y)-[1,1′-biphenyl]-4-yl)-2,2,2-trifluoroethoxy)pyrimidin-4-yl)-2,8-diazaspiro[4.5]decane-3-carboxylic acid] | < 50
Cc1cc(C)cc(-c2ccc([C@@H](Oc3cc(N4CCC5(CC4)CN[C@H](C(=O)O)C5)nc(N)n3)C(F)(F)F)c(-n3ccc(C)n3)c2)c1 [Example 1at, (S)-8-(2-amino-6-((R)-1-(3′,5′-dimethyl-3-(3-methyl-1H-pyrazol-1-yl)-[1,1′-biphenyl]-4-yl)-2,2,2-trifluoroethoxy)pyrimidin-4-yl)-2,8-diazaspiro[4.5]decane-3-carboxylic acid] | < 50
CCCOc1ccc(-c2ccc([C@@H](Oc3cc(N4CCC5(CC4)CN[C@H](C(=O)O)C5)nc(N)n3)C(F)(F)F)c(-n3ccc(C)n3)c2)cc1 [Example 1cd, (S)-8-(2-amino-6-((R)-2,2,2-trifluoro-1-(3-(3-methyl-1H-pyrazol-1-yl)-4′-propoxy-[1,1′-biphenyl]-4-yl)ethoxy)pyrimidin-4-yl)-2,8-diazaspiro[4.5]decane-3-carboxylic acid] | < 50
Nc1nc(O[C@H](c2ccc(-c3cccc(OC(F)(F)F)c3)cc2)C(F)(F)F)cc(N2CCC3(CC2)CN[C@H](C(=O)O)C3)n1 [Example 55at, (S)-8-(2-amino-6-((R)-2,2,2-trifluoro-1-(3′-(trifluoromethoxy)-[1,1′-biphenyl]-4-yl)ethoxy)pyrimidin-4-yl)-2,8-diazaspiro[4.5]decane-3-carboxylic acid] | 50 to 300
Nc1nc(O[C@H](c2ccc(-c3cccc(CO)c3)cc2)C(F)(F)F)cc(N2CCC3(CC2)CN[C@H](C(=O)O)C3)n1 [Example 55bt, (S)-8-(2-amino-6-((R)-2,2,2-trifluoro-1-(3′-(hydroxymethyl)-[1,1′-biphenyl]-4-yl)ethoxy)pyrimidin-4-yl)-2,8-diazaspiro[4.5]decane-3-carboxylic acid] | 300 to 3000
Nc1nc(O[C@H](c2ccc(Cl)cc2-c2cc(C(F)(F)F)cc(C(F)(F)F)c2)C(F)(F)F)cc(N2CCC3(CC2)CN[C@H](C(=O)O)C3)n1 [Example 34bh, (S)-8-(2-amino-6-((R)-1-(5-chloro-3′,5′-bis(trifluoromethyl)-[1,1′-biphenyl]-2-yl)-2,2,2-trifluoroethoxy)pyrimidin-4-yl)-2,8-diazaspiro[4.5]decane-3-carboxylic acid] | 300 to 3000
Cc1ccn(-c2cc(-c3ccc(OC(C)C)cc3)ccc2[C@@H](Oc2cc(N3CCC4(CC3)CN[C@H](C(=O)O)C4)nc(C)n2)C(F)(F)F)n1 [Example 29o, (S)-8-(2-methyl-6-((R)-2,2,2-trifluoro-1-(4′-isopropoxy-3-(3-methyl-1H-pyrazol-1-yl)-[1,1′-biphenyl]-4-yl)ethoxy)pyrimidin-4-yl)-2,8-diazaspiro[4.5]decane-3-carboxylic acid] | < 50
